Measurements as given in ChEMBL document CHEMBL1124814 (J Med Chem, 1990).
pIC50: −log10 of the molar value. Positions of bridges follow the written chain, without caps; N, C: chain ends. Residues, ends and D or L forms follow the SMILES beside them.

Columns and labels:
[1] = target: Opioid receptor (Mus musculus, UniProt P42866+P32300+P33534); experiment: Opioid receptors antagonist activity in smooth-muscle tissue mouse vas deferens (MVD); assay type: functional, tissue-based
[2] = target: T1, Opioid receptor (Mus musculus) (UniProt P42866+P32300+P33534); experiment: Opioid receptors antagonist activity in smooth-muscle tissue mouse vas deferens (MVD) in presence of NLX; assay type: functional, tissue-based
T1 sequence (P32300 whole entry, looked up): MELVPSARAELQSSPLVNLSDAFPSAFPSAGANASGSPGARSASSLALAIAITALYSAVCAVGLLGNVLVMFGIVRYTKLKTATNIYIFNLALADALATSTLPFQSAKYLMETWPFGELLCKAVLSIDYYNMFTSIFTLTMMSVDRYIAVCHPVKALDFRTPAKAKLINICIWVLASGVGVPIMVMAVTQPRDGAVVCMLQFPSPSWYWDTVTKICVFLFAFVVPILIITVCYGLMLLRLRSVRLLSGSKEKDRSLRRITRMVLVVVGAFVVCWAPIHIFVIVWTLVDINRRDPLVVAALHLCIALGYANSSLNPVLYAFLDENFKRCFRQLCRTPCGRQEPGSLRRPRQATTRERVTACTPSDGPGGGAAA
T1 sequence (P33534 whole entry, looked up): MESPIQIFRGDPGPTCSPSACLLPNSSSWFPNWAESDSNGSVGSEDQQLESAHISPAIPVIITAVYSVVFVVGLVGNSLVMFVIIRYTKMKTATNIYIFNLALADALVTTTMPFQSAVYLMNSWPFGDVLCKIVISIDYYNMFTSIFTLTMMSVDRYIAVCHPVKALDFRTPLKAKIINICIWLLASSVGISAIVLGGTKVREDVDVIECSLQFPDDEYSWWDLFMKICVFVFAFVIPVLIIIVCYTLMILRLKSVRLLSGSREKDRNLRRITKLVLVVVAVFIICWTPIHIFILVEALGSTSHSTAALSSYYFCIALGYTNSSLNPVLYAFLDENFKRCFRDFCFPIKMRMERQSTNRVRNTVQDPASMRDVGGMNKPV
T1 sequence (P42866 whole entry, looked up): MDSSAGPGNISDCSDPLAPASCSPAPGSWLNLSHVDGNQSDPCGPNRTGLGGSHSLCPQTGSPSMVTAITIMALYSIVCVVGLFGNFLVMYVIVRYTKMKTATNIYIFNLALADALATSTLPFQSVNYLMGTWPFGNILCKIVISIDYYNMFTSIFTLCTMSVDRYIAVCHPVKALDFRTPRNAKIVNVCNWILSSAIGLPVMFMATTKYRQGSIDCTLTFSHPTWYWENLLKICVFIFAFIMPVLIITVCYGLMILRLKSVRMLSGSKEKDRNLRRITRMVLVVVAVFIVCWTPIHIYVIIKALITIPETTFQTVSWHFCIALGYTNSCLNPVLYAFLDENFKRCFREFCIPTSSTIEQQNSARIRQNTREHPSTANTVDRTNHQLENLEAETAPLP

[3] = target: T1, Opioid receptor (Mus musculus); experiment: Opioid receptors antagonist activity in smooth-muscle tissue mouse vas deferens (MVD) in presence of CTAP; assay type: functional, tissue-based
[4] = target: T2, Opioid receptors; mu/kappa/delta (Homo sapiens, UniProt P41145+P41143+P35372); conditions: Cavia porcellus; Ileum
T2 sequence (P35372 whole entry, looked up): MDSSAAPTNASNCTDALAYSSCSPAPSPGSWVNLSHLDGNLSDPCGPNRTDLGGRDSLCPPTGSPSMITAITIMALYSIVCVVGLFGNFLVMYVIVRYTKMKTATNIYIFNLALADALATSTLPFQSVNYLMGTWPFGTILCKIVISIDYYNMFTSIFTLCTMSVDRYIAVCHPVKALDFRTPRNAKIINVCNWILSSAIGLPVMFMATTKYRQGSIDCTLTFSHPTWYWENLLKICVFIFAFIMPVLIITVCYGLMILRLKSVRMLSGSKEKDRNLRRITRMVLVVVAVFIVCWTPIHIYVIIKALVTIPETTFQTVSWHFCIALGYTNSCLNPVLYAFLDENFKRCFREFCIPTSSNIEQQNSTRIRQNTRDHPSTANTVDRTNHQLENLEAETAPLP
T2 sequence (P41143 whole entry, looked up): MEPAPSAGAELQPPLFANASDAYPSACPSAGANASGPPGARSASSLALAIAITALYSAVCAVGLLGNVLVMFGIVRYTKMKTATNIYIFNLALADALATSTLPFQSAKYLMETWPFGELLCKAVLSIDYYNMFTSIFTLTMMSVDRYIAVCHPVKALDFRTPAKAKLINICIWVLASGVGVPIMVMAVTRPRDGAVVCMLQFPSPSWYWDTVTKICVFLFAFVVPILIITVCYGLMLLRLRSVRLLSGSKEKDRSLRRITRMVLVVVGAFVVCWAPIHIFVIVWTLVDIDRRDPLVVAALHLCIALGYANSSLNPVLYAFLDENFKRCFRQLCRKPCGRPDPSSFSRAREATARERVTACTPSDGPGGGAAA
T2 sequence (P41145 whole entry, looked up): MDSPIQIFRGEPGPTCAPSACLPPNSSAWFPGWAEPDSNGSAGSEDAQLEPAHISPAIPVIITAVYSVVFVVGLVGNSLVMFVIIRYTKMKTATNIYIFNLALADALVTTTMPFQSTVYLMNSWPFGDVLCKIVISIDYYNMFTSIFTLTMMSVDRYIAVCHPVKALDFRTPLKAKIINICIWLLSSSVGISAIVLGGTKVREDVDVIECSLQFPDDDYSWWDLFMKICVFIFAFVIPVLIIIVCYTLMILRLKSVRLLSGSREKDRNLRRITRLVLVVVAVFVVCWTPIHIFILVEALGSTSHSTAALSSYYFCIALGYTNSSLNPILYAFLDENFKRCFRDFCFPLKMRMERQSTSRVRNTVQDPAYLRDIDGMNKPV
Description: Opioid receptors antagonist activity in smooth-muscle tissue of guinea pig ileum (GPI) in presence of NLX

[5] = target: T1, Opioid receptor (Mus musculus); experiment: Opioid receptors antagonist activity in smooth-muscle tissue mouse vas deferens (MVD) in presence of ICI; assay type: functional, tissue-based
[6] = target: Mu-type opioid receptor (Cavia porcellus, UniProt P97266); experiment: Binding affinity against Opioid receptor mu 1 in guinea pig brain homogenate using [3H]- PL-17 as radioligand; assay type: tissue-based
Chain of Mu-type opioid receptor (P97266 whole entry): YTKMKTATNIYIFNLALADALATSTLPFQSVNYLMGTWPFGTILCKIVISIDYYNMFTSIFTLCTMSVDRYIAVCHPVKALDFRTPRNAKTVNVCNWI

[7] = target: T2, Opioid receptors; mu/kappa/delta; experiment: Opioid receptors antagonist activity in smooth-muscle tissue of guinea pig ileum (GPI); assay type: functional, tissue-based, Cavia porcellus; conditions: target entry is the homologue from another species
[8] = target: T2, Opioid receptors; mu/kappa/delta; conditions: Cavia porcellus; Ileum; remark: listed apart in the source
Description: Opioid receptors antagonist activity in smooth-muscle tissue of guinea pig ileum (GPI) in presence of CTAP

[9] = target: Kappa-type opioid receptor (Cavia porcellus, UniProt P41144); experiment: Binding affinity against Opioid receptor kappa 1 in guinea pig brain homogenate using [3H]- U-69593 as radioligand; assay type: tissue-based
Chain of Kappa-type opioid receptor (P41144 whole entry): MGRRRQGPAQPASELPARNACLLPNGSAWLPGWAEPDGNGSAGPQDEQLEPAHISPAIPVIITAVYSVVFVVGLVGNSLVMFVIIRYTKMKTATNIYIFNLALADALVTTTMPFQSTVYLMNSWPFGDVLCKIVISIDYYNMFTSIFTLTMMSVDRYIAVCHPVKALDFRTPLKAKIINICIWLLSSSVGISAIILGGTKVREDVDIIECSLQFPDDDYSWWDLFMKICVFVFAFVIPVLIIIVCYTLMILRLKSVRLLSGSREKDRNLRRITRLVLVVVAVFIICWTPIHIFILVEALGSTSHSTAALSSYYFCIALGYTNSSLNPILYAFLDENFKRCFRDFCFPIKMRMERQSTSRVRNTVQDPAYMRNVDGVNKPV

Structure (SMILES): CC(C)C[C@H](NC(=O)[C@H](Cc1ccccc1)NC(=O)CNC(=O)CNC(=O)[C@@H](N)Cc1ccc(O)cc1)C(=O)N[C@@H](CCCN=C(N)N)C(=O)N[C@@H](CCCN=C(N)N)C(=O)N[C@@H]1CSSC[C@H](C(N)=O)NC(=O)[C@H](CC(C)C)NC(=O)[C@H](CCCCN)NC(=O)[C@@H]2CCCN2C(=O)[C@H](CCCN=C(N)N)NC1=O
- IC50 [1]: 19.5 nM
- Ke [2]: 18.2 nM
- Ke [3]: 1430 nM
- Ke [4]: 233 nM
- Ke [5]: 1000 nM
- pIC50 [6]: 9.44
- IC50 [7]: 1.75 nM

Structure (SMILES): C[C@H]1NC(=O)[C@H](CCCN=C(N)N)NC(=O)[C@H](CCCN=C(N)N)NC(=O)[C@@H](NC(=O)[C@H](Cc2ccccc2)NC(=O)CNC(=O)CNC(=O)[C@@H](N)Cc2ccc(O)cc2)CSSC[C@@H](C(N)=O)NC(=O)[C@@H]2CCCN2C(=O)[C@H](CCCN=C(N)N)NC1=O
- IC50 [1]: 1660 nM
- Ke [8]: 50 nM
- Ke [3]: 500 nM
- Ke [5]: 21.3 nM
- IC50 [7]: 4406 nM

Structure (SMILES): C[C@H]1NC(=O)[C@H](CCCNC(=N)N)NC(=O)[C@H](CCCNC(=N)N)NC(=O)[C@@H](NC(=O)[C@H](Cc2ccccc2)NC(=O)CNC(=O)CNC(=O)[C@@H](N)Cc2ccc(O)cc2)CSSC[C@@H](C(N)=O)NC(=O)[C@@H]2CCCN2C(=O)[C@H](CCCNC(=N)N)NC1=O
- pIC50 [9]: 9.41
- pIC50 [6]: 8.64

Structure (SMILES): CC(C)C[C@@H]1NC(=O)[C@H](CCCCN)NC(=O)[C@@H]2CCCN2C(=O)[C@H](CCCN=C(N)N)NC(=O)[C@@H](NC(=O)[C@H](CCCN=C(N)N)NC(=O)[C@H](CCCN=C(N)N)NC(=O)[C@H](CC(C)C)NC(=O)[C@H](Cc2ccccc2)NC(=O)CNC(=O)CNC(=O)[C@@H](N)Cc2ccc(O)cc2)CSSC[C@@H](C(N)=O)NC1=O
- IC50 [1]: 20.1 nM
- Ke [2]: 95.2 nM
- pIC50 [9]: 10.13
- Ke [3]: 175 nM
- Ke [4]: 38.9 nM
- Ke [5]: 156 nM
- pIC50 [6]: 9.01
- IC50 [7]: 1.3 nM

Structure (SMILES): CC[C@H](C)[C@H](NC(=O)[C@H](CCCN=C(N)N)NC(=O)[C@H](CCCN=C(N)N)NC(=O)[C@H](CC(C)C)NC(=O)[C@H](Cc1ccccc1)NC(=O)CNC(=O)CNC(=O)[C@@H](N)Cc1ccc(O)cc1)C(=O)N[C@@H](CCCN=C(N)N)C(=O)N1CCC[C@H]1C(=O)N[C@@H](CCCCN)C(=O)N[C@@H](CC(C)C)C(=O)N[C@@H](CCCCN)C(N)=O
- IC50 [1]: 7.8 nM
- Ke [2]: 100 nM
- pIC50 [9]: 9.94
- Ke [8]: 2000 nM
- Ke [4]: 82 nM
- pIC50 [6]: 8.89
- IC50 [7]: 1.7 nM

Structure (SMILES): CC[C@H](C)[C@H](NC(=O)[C@H](CCCN=C(N)N)NC(=O)[C@H](CCCN=C(N)N)NC(=O)[C@H](CC(C)C)NC(=O)[C@H](Cc1ccccc1)NC(=O)CNC(=O)CNC(=O)[C@@H](N)Cc1ccc(O)cc1)C(=O)N[C@@H](CCCN=C(N)N)C(=O)N1CCC[C@H]1C(=O)N[C@@H](CCCCN)C(N)=O
- IC50 [1]: 204 nM
- Ke [2]: 125 nM
- Ke [5]: 625 nM
- pIC50 [6]: 8.97
- IC50 [7]: 7.5 nM

Structure (SMILES): CC[C@H](C)[C@H](NC(=O)[C@H](CCCNC(=N)N)NC(=O)[C@H](CCCNC(=N)N)NC(=O)[C@H](CC(C)C)NC(=O)[C@H](Cc1ccccc1)NC(=O)CNC(=O)CNC(=O)[C@@H](N)Cc1ccc(O)cc1)C(=O)N[C@@H](CCCNC(=N)N)C(=O)N1CCC[C@H]1C(=O)N[C@@H](CCCCN)C(=O)N[C@@H](CC(C)C)C(=O)N[C@@H](CCCCN)C(=O)N[C@@H](Cc1c[nH]c2ccccc12)C(=O)N[C@@H](CC(=O)O)C(=O)N[C@@H](CC(N)=O)C(=O)N[C@@H](CCC(N)=O)C(=O)O [DYNORPHIN A (1-17)]
- pIC50 [9]: 9.64

Structure (SMILES): CC(C)C[C@@H]1NC(=O)[C@H](CCCCN)NC(=O)[C@@H]2CCCN2C(=O)[C@H](CCCN=C(N)N)NC(=O)[C@H](NC(=O)[C@H](CCCN=C(N)N)NC(=O)[C@H](CCCN=C(N)N)NC(=O)[C@H](CC(C)C)NC(=O)[C@H](Cc2ccccc2)NC(=O)CNC(=O)CNC(=O)[C@@H](N)Cc2ccc(O)cc2)CSSC[C@@H](C(N)=O)NC1=O
- IC50 [1]: 24.5 nM
- Ke [2]: 30.3 nM
- Ke [3]: 370 nM
- Ke [4]: 32.3 nM
- Ke [5]: 667 nM
- IC50 [7]: 2.27 nM

Structure (SMILES): CC(C)C[C@@H]1NC(=O)[C@H](CCCCN)NC(=O)[C@@H]2CCCN2C(=O)[C@H](CCCNC(=N)N)NC(=O)[C@H](NC(=O)[C@H](CCCNC(=N)N)NC(=O)[C@H](CCCNC(=N)N)NC(=O)[C@H](CC(C)C)NC(=O)[C@H](Cc2ccccc2)NC(=O)CNC(=O)CNC(=O)[C@@H](N)Cc2ccc(O)cc2)CSSC[C@@H](C(N)=O)NC1=O
- pIC50 [9]: 8.75
- pIC50 [6]: 7.99

Structure (SMILES): CC[C@H](C)[C@@H]1NC(=O)[C@H](CCCN=C(N)N)NC(=O)[C@H](CCCN=C(N)N)NC(=O)[C@@H](NC(=O)[C@H](Cc2ccccc2)NC(=O)CNC(=O)CNC(=O)[C@@H](N)Cc2ccc(O)cc2)CSSC[C@@H](C(N)=O)NC(=O)[C@@H]2CCCN2C(=O)[C@H](CCCN=C(N)N)NC1=O (H-YGGFCRRIRPC-NH2; disulfide 5-11)
- IC50 [1]: 421 nM
- Ke [2]: 80 nM
- pIC50 [9]: 9.55
- Ke [3]: 2000 nM
- Ke [4]: 66.7 nM
- Ke [5]: 86.2 nM
- pIC50 [6]: 10.57
- IC50 [7]: 1080 nM
